{
  "source": "paper PMC10004634",
  "about": "(PLOS ONE, 2023)",
  "key": {"[1]": {"test_system": "TMD8 xenograft tumor", "experiment": "Gene set enrichment analysis (GSEA) of TMD8 xenograft microarray data", "format": "in vivo, mouse"}, "[2]": {"target": "RIPK2 (Homo sapiens, UniProt O43353)", "sequence (O43353 whole entry)": "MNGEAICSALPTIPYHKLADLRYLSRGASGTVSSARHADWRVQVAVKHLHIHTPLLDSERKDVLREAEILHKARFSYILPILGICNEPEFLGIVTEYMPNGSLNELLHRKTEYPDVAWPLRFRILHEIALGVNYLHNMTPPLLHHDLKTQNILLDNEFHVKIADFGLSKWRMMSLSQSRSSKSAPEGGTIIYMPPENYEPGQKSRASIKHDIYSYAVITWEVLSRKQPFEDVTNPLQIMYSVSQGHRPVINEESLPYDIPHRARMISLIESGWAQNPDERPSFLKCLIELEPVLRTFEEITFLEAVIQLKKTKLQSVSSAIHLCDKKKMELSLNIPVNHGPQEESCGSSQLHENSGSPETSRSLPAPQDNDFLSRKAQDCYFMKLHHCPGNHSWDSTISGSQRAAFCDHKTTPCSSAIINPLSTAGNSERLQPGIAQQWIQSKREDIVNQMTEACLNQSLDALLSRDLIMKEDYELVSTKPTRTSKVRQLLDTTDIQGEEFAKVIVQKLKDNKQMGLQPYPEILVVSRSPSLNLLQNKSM", "experiment": "KinAffinity cell-based binding assay using PBMC", "parameters": "in a cell-based assay using PBMC (Kd); host or cells: PBMC"}, "[3]": {"test_system": "TMD8 cells", "experiment": "Western blot of IRF4, BCL6, c-MYC protein expression", "format": "cell-based, human", "conditions": "24 h, 1 μM", "method": "After culturing, cells were harvested and lysed with cell lysis buffer (Cell Signaling Technology, Inc.) containing 1 mM AEBSF (Calbiochem, #101500). As a positive control of BTK autophosphorylation for western blot analysis, TMD8 cells were treated with hydrogen peroxide (H2O2; final concentration: 6 mM) for 10 min, harvested as a control sample, and then lysed with the cell lysis buffer.\nEach mixture of cells and cell lysis buffer was incubated on ice for 5 min, then centrifuged at 13400 × g and 4°C for 10 min. Total lysates were loaded on 4%–12% SDS-PAGE (Bio-Rad) and transferred to a polyvinylidene difluoride (PVDF) membrane (Immobilon-P Transfer Membrane, Millipore Corporation). The blot was incubated in Tris-buffered saline with Tween 20 (TBS-T, Cell Signaling Technology, Inc.) containing 2 w/v% ECL Advance Blocking Agent (GE Healthcare Life Sciences, b) for 1 h at room temperature. The blocked PVDF membranes were immersed in TBS-T and washed three times with shaking at room temperature for 10 min. The membrane was incubated with primary antibody in TBS-T containing 2 w/v% ECL Advance Blocking Agent with gentle agitation overnight at 5°C in a cold storage room or for 1 h at room temperature. […] Lumino-image analyzer (LAS-1000 Plus system, Fuji Photo Film Co., Ltd.) and Image Reader LAS-1000 Lite version 1.3 (Fuji Photo Film Co., Ltd.) were used to visualize bands. […]"}, "[4]": {"test_system": "TMD8 cells", "experiment": "RT-qPCR of IRF4, BCL6, MYC mRNA", "format": "cell-based, human", "conditions": "24 h", "method": "After culturing, total RNA was isolated from cells using the RNeasy Plus Mini Kit (Qiagen), then cDNA was prepared from total RNA using the SuperScript VILO cDNA Synthesis Kit (Invitrogen) following the kit instructions. For quantification of each mRNA expression level, PCR was performed using TaqMan Fast Universal PCR Master Mix (Thermo Fisher Scientific) under the following conditions with the AriaMx Real Time PCR System (Agilent Technologies): 95°C for 3 min, followed by 40 cycles at 95°C for 5 s and 60°C for 20 s with continuous fluorescence measurement. All PCRs were performed in triplicate, and the mRNA expression of GAPDH was used as an internal control. The results (fold changes of the threshold cycle [Ct] relative to the control group) were obtained using the 2^−ΔΔCt method. The TaqMan probes for IRF4 (Assay ID: Hs00180031_m1), BCL6 (Assay ID: Hs00153368_m1), MYC (Assay ID: Hs00153408_m1), and GAPDH (Assay ID: Hs02786624_g1) were purchased from Thermo Fisher Scientific. Statistical tests were performed with the SAS 9.4 (SAS Institute Japan Ltd., Tokyo, Japan) TS1M4-based EXSUS system version 10.1.3 (CAC Corporation, Tokyo, Japan). The t-test or Dunnett test was used to compare mRNA expression in the DMSO- and compound-treated groups. The statistical tests were two-sided with a 5% significance level."}, "[5]": {"target": "CSK (Homo sapiens, UniProt P41240)", "sequence (P41240 whole entry)": "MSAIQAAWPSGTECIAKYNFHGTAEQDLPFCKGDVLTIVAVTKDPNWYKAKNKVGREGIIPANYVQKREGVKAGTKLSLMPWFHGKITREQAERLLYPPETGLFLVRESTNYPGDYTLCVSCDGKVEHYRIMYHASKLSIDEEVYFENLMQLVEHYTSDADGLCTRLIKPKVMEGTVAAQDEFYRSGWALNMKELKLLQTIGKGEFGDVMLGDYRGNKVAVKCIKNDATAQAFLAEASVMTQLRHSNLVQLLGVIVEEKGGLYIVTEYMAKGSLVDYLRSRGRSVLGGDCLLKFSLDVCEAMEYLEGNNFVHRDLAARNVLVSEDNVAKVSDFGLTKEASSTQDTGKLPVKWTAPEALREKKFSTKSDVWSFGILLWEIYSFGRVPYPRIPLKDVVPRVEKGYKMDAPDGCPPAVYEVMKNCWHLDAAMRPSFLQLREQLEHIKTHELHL", "experiment": "KinAffinity cell-based binding assay using PBMC", "parameters": "purchased Carna Biosciences Inc"}, "[6]": {"conditions": "GSEA report for tirabrutinib 10, 10 mg/kg vs vehicle"}, "[7]": {"conditions": "GSEA report for vehicle, tirabrutinib 10 mg/kg vs vehicle"}, "[8]": {"conditions": "tirabrutinib 1 μM, BMS-345541 10 μM, MK-2206 1 μM, refametinib 0.1 μM"}},
  "note": "“Also recorded” adds a separate entry of the source.",
  "data": [
    {"molecule": "CC#CC(=O)N1CC[C@@H](n2c(=O)n(-c3ccc(Oc4ccccc4)cc3)c3c(N)ncnc32)C1", "note": "[Tirabrutinib]", "values": [
      {"measurement": "IRF4, MYC, and mTORC1 pathway-related genes (GSEA)", "setting": "[1]; 10 mg/kg vs vehicle", "result": "downregulated"},
      {"measurement": "NES DESCARTES_FETAL_LUNG_LYMPHOID_CELLS", "setting": "[1]; [6]", "result": 2.406},
      {"measurement": "NES DESCARTES_FETAL_STOMACH_LYMPHOID_CELLS", "setting": "[1]; [6]", "result": 2.57},
      {"measurement": "NES GOBP_CYTOKINE_PRODUCTION_INVOLVED_IN_INFLAMMATORY_RESPONSE", "setting": "[1]; [6]", "result": 2.462},
      {"measurement": "NES MORI_PLASMA_CELL_DN", "setting": "[1]; [6]", "result": 2.456},
      {"measurement": "NES REACTOME_GENERATION_OF_SECOND_MESSENGER_MOLECULES", "setting": "[1]; [6]", "result": 2.407},
      {"measurement": "NES ELVIDGE_HIF1A_TARGETS_DN", "setting": "[1]; [7]", "result": -2.295},
      {"measurement": "NES GSE29614_CTRL_VS_DAY7_TIV_FLU_VACCINE_PBMC_DN", "setting": "[1]; [7]", "result": -2.25},
      {"measurement": "NES MENSE_HYPOXIA_UP", "setting": "[1]; [7]", "result": -2.505},
      {"measurement": "NES QI_HYPOXIA", "setting": "[1]; [7]", "result": -2.398},
      {"measurement": "NES TSANG_PBMC_FLUVIRIN_PANDEMRIX_ADULT_CORR_WITH_CELL_FREQ_CD27HI_CD38HI_CD20_NEG_PLASMABLASTS_AND_CD38PLUS_OF_IGD_CD27PLUS_MEM_B_CELLS_7DY_POSITIVE", "setting": "[1]; [7]", "result": -2.3945},
      {"measurement": "Kd", "setting": "[2]", "result": "> 3", "unit": "µM"},
      {"measurement": "BCL6 protein expression", "setting": "[3]", "result": "not changed"},
      {"measurement": "IRF4 protein expression", "setting": "[3]", "result": "downregulation"},
      {"measurement": "MYC protein expression", "setting": "[3]", "result": "downregulation"},
      {"measurement": "BCL6 mRNA expression", "setting": "[4]; 1 μM", "result": "upregulated"},
      {"measurement": "IRF4 mRNA expression", "setting": "[4]; [8]", "result": "downregulated; also recorded: strongly inhibited"},
      {"measurement": "MYC mRNA expression", "setting": "[4]; [8]", "result": "partially downregulated"},
      {"measurement": "Kd", "setting": "[5]", "result": "> 3", "unit": "µM"}
    ]}
  ]
}
